This passage reports IC50 and Activity results from ChEMBL document CHEMBL1143067, “Novel nitrogen mustard-armed combi-molecules for the selective targeting of epidermal growth factor receptor overexperessing solid tumors: discovery of an unusual structure-activity relationship” (J Med Chem, 2007).

pIC50: −log10 of the molar value. Activity calls are given as the source filed them. No cut-off for these calls is given here.

The target of experiment [1] is Epidermal growth factor receptor (Homo sapiens, UniProt P00533). As to the kind of experiment: Inhibition of EGFR tyrosine kinase expressed in A431 cells.
Epidermal growth factor receptor, sequence (P00533 whole entry): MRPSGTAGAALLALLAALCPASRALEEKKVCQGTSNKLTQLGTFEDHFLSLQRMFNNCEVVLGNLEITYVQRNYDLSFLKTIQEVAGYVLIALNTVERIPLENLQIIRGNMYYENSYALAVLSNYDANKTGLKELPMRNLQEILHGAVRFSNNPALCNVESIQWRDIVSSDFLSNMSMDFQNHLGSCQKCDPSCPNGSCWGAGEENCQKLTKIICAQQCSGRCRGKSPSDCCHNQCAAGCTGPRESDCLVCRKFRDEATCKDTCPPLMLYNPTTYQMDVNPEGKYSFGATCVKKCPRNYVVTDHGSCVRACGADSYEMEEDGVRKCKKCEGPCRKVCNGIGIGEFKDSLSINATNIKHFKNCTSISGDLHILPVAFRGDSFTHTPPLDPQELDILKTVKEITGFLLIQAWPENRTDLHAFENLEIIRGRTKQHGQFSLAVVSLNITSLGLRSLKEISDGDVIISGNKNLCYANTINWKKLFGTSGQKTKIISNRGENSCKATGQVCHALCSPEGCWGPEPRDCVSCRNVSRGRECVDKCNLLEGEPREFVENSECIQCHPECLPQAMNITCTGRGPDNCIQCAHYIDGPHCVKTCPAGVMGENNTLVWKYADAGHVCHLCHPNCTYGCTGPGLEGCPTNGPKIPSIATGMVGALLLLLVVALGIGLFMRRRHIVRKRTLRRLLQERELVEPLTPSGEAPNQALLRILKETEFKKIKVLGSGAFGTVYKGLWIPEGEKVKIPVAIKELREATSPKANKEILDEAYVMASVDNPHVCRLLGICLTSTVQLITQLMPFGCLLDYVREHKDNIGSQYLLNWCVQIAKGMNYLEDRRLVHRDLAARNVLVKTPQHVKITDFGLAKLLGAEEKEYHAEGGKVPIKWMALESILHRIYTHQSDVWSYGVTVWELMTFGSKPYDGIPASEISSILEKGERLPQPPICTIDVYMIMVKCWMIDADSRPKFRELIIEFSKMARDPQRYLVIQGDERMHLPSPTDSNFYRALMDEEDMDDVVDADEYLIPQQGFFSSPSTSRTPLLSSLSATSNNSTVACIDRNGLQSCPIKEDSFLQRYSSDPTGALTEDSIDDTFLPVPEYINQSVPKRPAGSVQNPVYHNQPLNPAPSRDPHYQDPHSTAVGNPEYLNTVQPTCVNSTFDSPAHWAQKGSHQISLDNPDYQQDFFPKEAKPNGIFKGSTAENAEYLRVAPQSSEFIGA
Experiment [2] relates to NIH3T3. In words: Inhibition of serum-stimulated growth of NIH3T3 cells after 3 days by SRB assay. A general note: In SRB staining, fixed cells bind dye roughly in proportion to their protein.
The subject of experiment [3] is NIH3T3. As to the kind of experiment: Inhibition of serum-stimulated growth of NIH3T3 cells transfected with HER14 after 3 days by SRB assay.
The subject of experiment [4] is DU-145. In words: Growth inhibition of human DU145 cells after 3 days by SRB assay.
Experiment [5] deals with DU-145. In words: Induction of cell cycle arrest in human DU145 cells assessed as accumulation at G1 phase at 10 uM after 24 hrs by flow cytometry. The class given is functional, cell-based.
In experiment [6] the test system is DU-145. In words: Induction of cell cycle arrest in human DU145 cells assessed as accumulation at mid-S phase at 10 uM after 24 hrs by flow cytometry. In kind it is functional, cell-based. (In general: In flow cytometry, cells or beads pass a laser one at a time.)
Experiment [7] has as its system DU-145. In words: Induction of DNA interstand cross links in human DU145 cells assessed as decrease in comet tail moment after irradiation by single cell gel electrophoresis assay. The class given is functional, cell-based.

The pIC50 is the IC50 on a negative log10 scale, so that one unit is a factor of ten. For `ClCCN(CCNN=Nc1ccc2ncnc(Nc3cccc(Cl)c3)c2c1)c1ccc(Cl)cc1`, the pIC50 in experiment [1] was 5.66; in the experiment with NIH3T3 [2] (Mus musculus, NIH3T3, 72 h), 4.56; with NIH3T3 [3] (Mus musculus, NIH3T3, 72 h), 4.92; in the experiment on DU-145 [4] (Homo sapiens, DU-145, 72 h), 5.33.
`Nc1ccc2ncnc(Nc3cccc(Cl)c3)c2c1`: the negative logarithm of the IC50 (pIC50) with NIH3T3 [2] (nih3t3) was 4.42; in the experiment with NIH3T3 [3] (nih3t3), 5.50; in the experiment on DU-145 [4] (du-145), 4.47.
For the compound `ClCCN(CCNN=Nc1ccc2ncnc(Nc3cccc(Cl)c3)c2c1)Cc1ccccc1`, the pIC50 is 7.15 in experiment [1]; 4.82 in the experiment with NIH3T3 [2] (Mus musculus, NIH3T3, 72 h); 5.53 with NIH3T3 [3] (Mus musculus, NIH3T3, 72 h); 4.98 in the experiment on DU-145 [4] (Homo sapiens, DU-145, 72 h).
The matching figures for `COc1ccc(N(CCCl)CCN/N=N/c2ccc3ncnc(Nc4cccc(Cl)c4)c3c2)cc1`: 5.40, 5.04, 5.21 and 5.10.
For the compound `CN(CCCl)CCN/N=N/c1ccc2ncnc(Nc3cccc(Cl)c3)c2c1`, the pIC50 is 8.36 in experiment [1]; 4.57 in the experiment with NIH3T3 [2] (Mus musculus, NIH3T3, 72 h); 5.88 in the experiment with NIH3T3 [3] (Mus musculus, NIH3T3, 72 h); 5.59 in the experiment on DU-145 [4] (Homo sapiens, DU-145, 72 h). The outcome with DU-145 [5] and with DU-145 [6] was Active. For the same compound, the Activity result with DU-145 [7] is “Dose-dependent effect”.
Turning to `CN(C)CCN/N=N/c1ccc2ncnc(Nc3cccc(Cl)c3)c2c1`, the pIC50 is 7.43 in experiment [1]; 4.40 in the experiment with NIH3T3 [2] (Mus musculus, NIH3T3, 72 h); 5.78 with NIH3T3 [3] (Mus musculus, NIH3T3, 72 h); 4.43 in the experiment on DU-145 [4] (Homo sapiens, DU-145, 72 h).
In the same order, the values of `COc1ccc(N(CCN=NNc2ccc3ncnc(Nc4cccc(Cl)c4)c3c2)CC(C)Cl)cc1` (stereo not given) are 6.01, 4.67, 5.24 and 4.94.
